Patent US20070027067A1, “Transition-state Inhibitors of Pin1, alpha-Ketoamide-containing peptidomimetics, and synthesis thereof” (priority 2005, published 2007)

Assay: stability of the product in solution
Assay type: physicochemical
Details: CDCl3 solution, after 2 days; decomposition product appears to be a cyclic dimer (bis-lactone)
Description: The compound 7 characterized by MS was obtained in 30% yield. […] The decomposition product appears to be a cyclic dimer (bis-lactone) of 7. [drawing 8] [drawing 9]

In the case of O=C(N[C@@H](CO)C(=O)C(=O)N1CCC[C@H]1C(=O)O)OCC1c2ccccc2-c2ccccc21 [Compound 7], the “stability in solution (decomposition)” value is reported as “totally decomposed”.
